Experimental data as given in patent US10472393B2, “Method for inhibiting ADAM proteases with cyclic peptides” (Cancer Research Technology Limited, priority 2007, dated 2019).
*1 amine or outer side, *2 acyl side, *3 side chain or, on linkers, in order; H or OH if unused. Where a SMILES comes first, the peptide text is derived from it. Where no end group is shown, it is not given here. [ ]: non-standard residue; d: D form. isoSer(2S) = O=C([C@@H](O)CN[*:1])[*:2]

Key:
recombinant ADAM8 = biological target: T1, recombinant ADAM8 (Mus musculus, UniProt Q05910); assay: Fluorescence assay of purified recombinant ADAM8 with fluorogenic CD23 peptide substrate; type: biochemical; settings: for inhibition of ADAM8 proteolytic activity: FIG. 1B, peptides at 100 nM
T1 sequence (Q05910 17-826): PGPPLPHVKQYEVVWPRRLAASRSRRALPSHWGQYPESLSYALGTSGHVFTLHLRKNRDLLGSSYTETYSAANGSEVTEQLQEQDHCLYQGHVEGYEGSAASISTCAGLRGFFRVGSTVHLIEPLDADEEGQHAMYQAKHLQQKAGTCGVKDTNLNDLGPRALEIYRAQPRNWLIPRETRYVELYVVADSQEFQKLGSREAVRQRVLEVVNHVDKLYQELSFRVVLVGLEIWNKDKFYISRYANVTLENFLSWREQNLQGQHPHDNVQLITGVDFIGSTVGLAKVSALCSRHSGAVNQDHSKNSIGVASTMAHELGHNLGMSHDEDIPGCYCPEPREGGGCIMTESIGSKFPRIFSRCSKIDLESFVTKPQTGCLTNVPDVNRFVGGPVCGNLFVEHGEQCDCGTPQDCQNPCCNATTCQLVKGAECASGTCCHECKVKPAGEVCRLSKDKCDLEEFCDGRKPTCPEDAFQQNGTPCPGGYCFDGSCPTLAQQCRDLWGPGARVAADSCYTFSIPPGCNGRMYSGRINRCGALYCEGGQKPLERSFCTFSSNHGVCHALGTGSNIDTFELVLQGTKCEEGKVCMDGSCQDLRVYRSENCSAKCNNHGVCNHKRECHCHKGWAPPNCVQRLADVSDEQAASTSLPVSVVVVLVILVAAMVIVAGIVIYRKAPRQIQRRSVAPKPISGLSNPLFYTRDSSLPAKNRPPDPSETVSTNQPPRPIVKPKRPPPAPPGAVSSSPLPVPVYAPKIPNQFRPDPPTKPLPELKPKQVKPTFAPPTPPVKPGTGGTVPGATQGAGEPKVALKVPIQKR
Description: In the following example, the ability of cyclic peptides to inhibit the activity of a recombinant ADAM8 was tested in fluorescence assays using a fluorogenic ADAM8 substrate (Moss and Rasmussen, 2007).
(§1) Activity of purified recombinant ADAM8 was assessed by using a fluorogenic CD23 peptide (Dabcyl-[…](5-FAM)-CONH2, SEQ ID NO:19) as a substrate. 50 ng substrate was incubated with 100 ng of ADAM8 in assay buffer (25 mM TrisHCl pH 7.5, 10 mM CaCl2, 150 mM NaCl) at 37° C. in the time range of 0 to 18 hours. Potential ADAM8 inhibitors were preincubated for 30 min before addition of the substrate. As a negative control, CD23 was incubated with assay buffer. For determination of ADAM10 activity, 100 ng of the recombinant ADAM10 protein (R&D systems) was used in conjunction with the fluorogenic substrate Dabcyl-LAQA(HomoPhe) RSC (Fluorescein)-NH2 (SEQ ID NO:55) in assay buffer (TrisHCl pH 9.0, 2.5 μM ZnCl2). For both assays the final volume in each well was 150 μl. Activity was measured as increase in fluorescence resulting from ADAM8/ADAM10 to cleave the quenched fluorescent substrates (λ excitation: 485 nm; λ emission: 520 nm) using a BMG Optima plate reader fluorometer.

ADAM10 = assay: Specificity test, ADAM catalytic/disintegrin construct, LAQA fluorescent substrate; type: biochemical; settings: maximal concentration 10 μM
Description: (§2) The maximal concentration of the inhibitor peptide was 10 μM.
(§3) ADAM catalytic/disintegrin constructs were monitored at 5-min intervals using the indicated fluorescent substrates with excitation and emission wavelengths of 485 and 530 nm, respectively. The substrates were diluted from a 10 mM stock in DMSO to 10 μM in assay buffer containing 20 mM Tris, pH 8.0, and 6×10^−4% Brij-35. For experiments with ADAM8 only, 10 mM CaCl2 was added to the buffer. Reactions were run in a 96-well plate with either inhibitor (10 nM-10 μM) in 1% DMSO or a 1% DMSO control. Background wells contained substrate and 1% DMSO and were subtracted from all other wells. Endpoints were determined in wells containing substrate and an excess of ADAM17 for the TNF-alpha substrate and ADAM8 for the CD23 substrate. Concentrations of ADAM proteins were in the range of 2.0 nM for TACE, 10 nM for ADAM9, 5 nM for ADAM10, 10 nM for ADAM8, and 2 nM for ADAM12.

ADAM17 (TACE) = assay: as above; type: biochemical; settings: maximal concentration 10 μM
Description: as §2, §3

ADAM12 = assay: as above; type: biochemical; settings: maximal concentration 10 μM
Description: as §2, §3

[1] = test system: C6 glioma cells overexpressing ADAM8; assay: Matrigel invasion assay, C6 glioma cells overexpressing ADAM8; type: cell-based, rat
Description: (§4) In this example, the ability of cyclic peptide to inhibit ADAM8 mediated tumour cell migration through an artificial extracellular matrix (Matrigel®) was measured in a cell invasion assay. Rat glioma C6 cells were stably transfected with full length ADAM8 cDNA [Schlomann et al, 2002]. Untransfected C6 glioma cells served as controls. 5×10^4 cells were suspended in 100 μl of culture medium in the absence or presence of peptides (100 nM) and loaded into Matrigel invasion chambers (BD Biosciences, Heidelberg, Germany), which were handled according to the supplier's manual. After 20 hours incubation time, invaded cells were fixed with methanol, stained with toluidine blue, and counted. Experiments were performed in triplets and from each well, 10 viewing fields were counted manually under the microscope. Differences between the values obtained were analysed using the Mann-Whitney U test.
(§5) ADAM8 was overexpressed by transfection in fibroblast (L929) and glioma (C6) cell lines which show no invasive potential under untransfected conditions. When ADAM8 expressing plasmids were transfected into these cell lines, the cells became highly invasive in Matrigel Invasion assays (e.g. as described in example 5). […] Invasion is also mediated by a soluble variant of ADAM8, which is released upon activation of ADAM8 in these cells.

ADAM8 = assay: Specificity test, ADAM catalytic/disintegrin construct, CD23 fluorescent substrate; type: biochemical; settings: read-out: ADAM inhibition with P1, IC50, 10 mM CaCl2 in buffer
Description: as §2, §3

ADAM9 = assay: Specificity test, ADAM catalytic/disintegrin construct, TNF peptide fluorescent substrate; type: biochemical; settings: maximal concentration 10 μM
Description: as §2, §3

[2] = test system: mouse fibroblast (L929) cells overexpressing ADAM8; assay: Matrigel invasion assay, L929 fibroblast cells overexpressing ADAM8; type: cell-based; settings: FIG. 11; peptide 5 μM
Description: as §4, §5

recombinant ADAM10 = biological target: T2, recombinant ADAM10 (Homo sapiens, UniProt O14672); assay: Fluorescence assay of recombinant ADAM10 with fluorogenic LAQA peptide substrate; type: biochemical; settings: FIG. 2, peptides at 100 nM
T2 construct: purchased R&D systems
T2 sequence (O14672 214-748): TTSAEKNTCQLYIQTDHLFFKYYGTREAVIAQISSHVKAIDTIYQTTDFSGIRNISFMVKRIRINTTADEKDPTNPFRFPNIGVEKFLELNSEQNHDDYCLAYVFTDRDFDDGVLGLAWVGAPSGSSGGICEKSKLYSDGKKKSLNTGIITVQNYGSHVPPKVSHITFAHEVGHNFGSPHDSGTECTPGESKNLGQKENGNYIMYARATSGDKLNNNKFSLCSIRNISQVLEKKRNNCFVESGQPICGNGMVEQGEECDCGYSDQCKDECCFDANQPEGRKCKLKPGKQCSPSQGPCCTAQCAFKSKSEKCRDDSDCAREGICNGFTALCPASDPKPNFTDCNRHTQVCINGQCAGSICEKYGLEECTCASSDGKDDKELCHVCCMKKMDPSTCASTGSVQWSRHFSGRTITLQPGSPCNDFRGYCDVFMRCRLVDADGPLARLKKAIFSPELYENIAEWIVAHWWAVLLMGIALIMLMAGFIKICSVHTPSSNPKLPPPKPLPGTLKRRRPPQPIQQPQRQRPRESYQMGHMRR
Description: as §1

ADAM8 DC domain = biological target: T3, ADAM8 DC domain (Mus musculus, UniProt Q05910); assay: Adhesion of ADAM8-expressing cells to plates coated with recombinant ADAM8 DC domain; type: cell-based; settings: FIG. 8; concentration used in the range of 10 nM
T3 construct: recombinant ADAM8 disintegrin/cysteine-rich (DC) domain; Myc (C); His6 (C); made in house; host or cells: E. coli strain TOP10
T3 sequence (Q05910 402-643 limits assumed): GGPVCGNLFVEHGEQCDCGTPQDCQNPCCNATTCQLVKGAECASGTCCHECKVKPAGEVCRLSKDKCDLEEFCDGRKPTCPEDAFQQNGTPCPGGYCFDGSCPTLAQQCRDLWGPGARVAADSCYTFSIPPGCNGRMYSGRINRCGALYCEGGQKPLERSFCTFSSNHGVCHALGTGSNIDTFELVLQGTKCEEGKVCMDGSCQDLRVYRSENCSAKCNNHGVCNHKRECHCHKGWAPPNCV
Description: In this example, peptides synthesised as described in example 1 were used to target cell adhesion mediated by the ADAM8 DC domain. A recombinant DC domain of ADAM8 was expressed and purified from E. coli and then coated onto cell culture plates. Cells over-expressing ADAM8 were then allowed to bind to the ADAM8 DC domain on the plates.
96-well plates were coated with 50 μg/ml of recombinant ADAM8 DC protein in PBS at 4° C. for 16 h. To express the recombinant DC domain of ADAM8, the cDNA fragment encoding the A8 DC domain was generated by PCR using Platinum™ Pfx polymerase (Invitrogen) with the following primers: DCE-A8f, 5′-GGTGGCCCTGTGTGTGGAAAC-3′ (SEQ ID NO:17); DCE-A8r, 5′-TACACAGTTGGGTGGTGCCCA-3′ (SEQ ID NO:18). The resulting cDNA fragment was cloned into the bacterial expression vector pTrcHis2 (Invitrogen) containing a C-terminal Myc and His6 tag. This vector was transformed into E. coli strain TOP10 (Invitrogen). Recombinant protein expression was induced with 1 mM isopropyl-1-thio-D-galactopyranoside for 5 h to overnight. […]
After application of the recombinant protein and blocking with bovine serum albumin for 1 h, 10^5 cells in PBS or medium (with 5% FCS) were seeded onto the plates. […] After 1 h incubation at 37 C, the wells were rinsed 3× with PBS, and the remaining cells were quantified by counting 10 randomly chosen viewing fields (100-fold magnification). […]

Mice (strain C57BL/6) = assay: Acute and chronic toxicity study in mice; type: in vivo, mouse
Description: To test for acute and for chronic toxicity, we used dosages of 1 μg, 5 μg, and 10 μg per gram of body weight in 100 μl of injection volume. Mice (strain C57BL/6) were either injected once (acute toxicity) or weekly three-times (chronic toxicity) intraperitoneal with the dosages indicated. All mice were analysed in cohorts of n=6, and NaCl injected mice were used as controls. […] We assessed spontaneous behaviour and motor performance of the mice. […] After 4 weeks, mice were sacrificed and representative organs were dissected and assessed histologically by normal hematoxylin/eosin (HE) staining. For each cohort of mice, one representative is documented for brain (cerebellum and cortex), liver, spleen, and kidney in FIG. 13.

Row | Compound | inhibition of ADAM8 proteolytic activity (recombinant ADAM8; CD23 substrate) | IC50 (recombinant ADAM8; FIG. 1A, CD23 as substrate, read-out: IC50 for the inhibition of ADAM8) | ADAM inhibition with P1 (ADAM10) | ADAM inhibition with P1 (ADAM17 (TACE)) | ADAM inhibition with P1 (ADAM12) | tumour cell invasion in ADAM8 expressing cells ([1]; FIG. 4, Example 5, 20 hours) | cell invasion, dose dependence ([1]; FIG. 10, Example 7) | ADAM-8 mediated cell invasion ([1]; FIG. 12, peptide 5 μM) | IC50 (ADAM8) | ADAM inhibition with P1 (ADAM9) | ADAM-8 mediated cell invasion [2] | inhibition of ADAM10 (recombinant ADAM10) | concentration dependence of ADAM8 inhibition (recombinant ADAM8; FIG. 1C, 50-200 nM, CD23 substrate) | inhibition of cell adhesion mediated by ADAM8 DC domain (ADAM8 DC domain) | spontaneous behaviour and motor performance (Mice (strain C57BL/6); 1, 5, 10 μg per gram body weight i.p., once or weekly three-times, 4 weeks) | survival and obvious abnormalities (Mice (strain C57BL/6); 1, 5, 10 μg per gram body weight i.p., once or weekly three-times, 4 weeks observation) | histology (HE staining) of brain, liver, spleen, kidney (Mice (strain C57BL/6); FIG. 13, after 4 weeks)
1 | H-RLSKDK-OH (not fully specified (bridges)) [Peptide P4] | little effect on ADAM8 activity |  |  |  |  |  |  |  |  |  |  |  |  |  |  |  | 
2 | CNC(=O)[C@H](Cc1ccccc1)NC(=O)[C@H](CC(C)C)[C@H](CSc1cccs1)C(=O)NO [BB-94, batimastat, reference compound] |  | ~50 nM |  |  |  |  |  |  |  |  |  |  |  |  |  |  | 
3 | CC(C)C[C@@H]1NC(=O)[C@H](CCCNC(=N)N)NC(=O)[C@H](CCCCN)NC(=O)[C@H](CC(=O)O)NC(=O)[C@H](CCCCN)NC(=O)[C@@H](O)CNC1=O [Peptide P1, c(RLsKDK)] (cyclo(RL[isoSer(2S)]KDK)) | showed the most marked inhibition |  | No inh. at 10 μM | No inh. at 10 μM | No inh. at 10 μM | dramatically reduced tumour cell invasion | blocks cell invasion in a dose-dependent manner | significantly blocked | 100 nM | No inh. at 10 μM | significantly blocked | little inhibition | concentration-dependant inhibition | very potent in the inhibition of cell adhesion | not able to detect any differences in behaviour | all mice were alive and did not show any obvious abnormalities | did not show any evidence of toxicity
